# Reference: the METLIN SMRT retention time set (Domingo-Almenara et al. 2019)
# Test: gradient 5% acetonitrile 3 min, to 50% in 2 min, to 85% in 15 min, held 3 min, 100 µL/min
# Conditions: column: Zorbax Extend-C18 2.1 x 50 mm; eluents: water / acetonitrile, 0.1% formic acid
# Summary of the method: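 Retention times come from adduct peaks that were picked computationally and then checked by hand. The standards, pure and pooled in mixtures of ~100 molecules, were run on a Zorbax Extend-C18 column (2.1 × 50 mm, 1.8 μm) at 100 μL/min with water and acetonitrile, each with 0.1% formic acid. Detection was by quadrupole time-of-flight mass spectrometry in positive and negative ionization mode, with a dead volume of 40 μL and a dwell volume of 900 μL.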
row,SMILES,RP-LC retention time [s]
1,Cc1cc(NC(=O)c2cnc3c(c2)c(=O)n(C)c(=O)n3-c2ccccc2)ccc1F,942
2,Cc1[nH]c2ccccc2c1C(Nc1nc2ccccc2s1)c1ccccn1 (centres undefined),703
3,COc1cccc(-c2csc(Cc3nc(-c4ccccc4Cl)no3)n2)c1,1150
4,Cc1ccc(NC(=O)C2CCN(S(C)(=O)=O)c3ccccc3O2)cc1 (centres undefined),892
5,COc1ccc(-c2noc(Cn3cnc4c(cnn4-c4ccc(Cl)cc4)c3=O)n2)cc1,1120
6,NC(=O)c1ccc(I)c([N+](=O)[O-])c1,745
7,COCCC1CCN(C(=O)CN(C)C(=O)c2cccn2C)CC1,670
8,CS(=O)(=O)N1CCC(C(=O)Nc2ccc(F)c(Cl)c2)Oc2ccccc21 (centres undefined),986
9,CN(C)c1nc(Nc2ccc(F)cc2)c2cnn(C)c2n1,781
10,COC(=O)c1c(C)c(C(=O)C(C)N(Cc2ccc(F)cc2)C(=O)C2CCC2)c(C)n1C (centres undefined),1040
11,CN(CC1CCOCC1)C(=O)Nc1cc(F)ccc1F,696
12,COc1ccc(-c2nc(C3CC(=O)N(c4ccc(F)c(Cl)c4)C3)no2)c(OC)c1 (centres undefined),1000
13,O=C(OCC(O)COC(=O)c1cccnc1)c1cccnc1,624
14,CC(C)c1ccc(NC(=O)CC2=C3CCCCC3N(C(C)C)C2=O)cc1 (centres undefined),1070
15,CC(=O)NCCc1csc(C2CCCN(C(=O)C3CCOC3)C2)n1 (centres undefined),603
16,CC(C)C(=O)NC(C)c1nc(-c2ccccc2Cl)no1 (centres undefined),834
17,CCCN(C)S(=O)(=O)c1cc(-c2nnc(C(C)C)o2)co1,872
18,CCc1nc(-c2csc(S(=O)(=O)N3CCC(C(=O)N4CCC5(CC4)OCCO5)CC3)c2)no1,816
19,O=C(Cc1csc(NC(=O)C2CCC(=O)N2)n1)NCCC1=CCCCC1 (centres undefined),643
20,Cc1nc(C)c(CCNS(=O)(=O)c2cc(C)c(C)cc2C)s1,695

# The remaining lines, values ahead:
row,RP-LC retention time [s],SMILES
1,638,CCc1nnc2nc(N3CCN(C(=O)c4ccc(Br)cc4)CC3)cc(C)n12
2,754,CC(C)Oc1ccc(CNC(=O)c2ccc3c(c2)nc2n3CCN(C(C)C)C2=O)cc1
3,1020,Cn1nc(-c2nnc(-c3ccc(F)cc3)o2)c2c1CCN(S(=O)(=O)c1ccc(Cl)cc1)C2
4,785,CCn1c(=O)c(N2CCC(NC(=O)Nc3ccc(OC)c(OC)c3)CC2)nc2ccccc21
5,664,CCN1CCN(C(=O)c2cc3c(=O)n(Cc4ccco4)ccc3nc2C)CC1
6,1170,Cc1cccc(C)c1NC(=O)C1CCCN(c2nc3ccccc3nc2C(F)(F)F)C1 (centres undefined)
7,876,CC(C)NC(=O)c1ccc(OCC2CCCN(C(=O)c3ccccc3Cl)C2)cc1 (centres undefined)
8,566,O=C(NCCN1CCCCC1)c1csc(-c2ccnc(N3CCOCC3)c2)n1
9,885,Cc1[nH]c(C(=O)N2CCCC(C(=O)NCc3cccc(Cl)c3)C2)c(C)c1C(=O)OC(C)C (centres undefined)
10,915,COC(=O)c1cc2c(=O)n(-c3ccc(Cl)c(Cl)c3)ccc2nc1C
11,1060,CC1CCN(C(=O)c2nnc(-c3ccc(S(=O)(=O)N4CCCCC4)cc3)o2)CC1
12,645,COc1ccc(Nc2nc(N3CCN(C)CC3)nc3c2C(=O)CCC3)cc1
13,595,CCOc1cc(=O)c(C(=O)N2CCC(C(N)=O)CC2)nn1-c1ccc(F)cc1
14,770,Cc1ccc(NC(=O)N2CCC(N3CCN(Cc4ccc(F)cc4)C(=O)C3=O)CC2)cc1F
15,540,CCn1cnc(S(=O)(=O)N2CCC(C(=O)NCc3ccccn3)CC2)c1
16,649,CCNC(=O)C1CCCN(c2nc3ncn(CC(=O)Nc4ccc5c(c4)OCO5)c(=O)c3s2)C1 (centres undefined)
17,793,CC(C)n1nnc2cc(C(=O)N(C)CC(=O)Nc3ccc(Cl)cc3)ccc21
18,588,COc1cccc2c1OC1(C)CC2NC(=O)N1c1cccc(C(=O)N2CCN(c3ccccn3)CC2)c1 (centres undefined)
19,670,Cc1cc(=O)n2c3ccccc3n(CC(O)CN3CCN(c4ccccc4)CC3)c2c1C#N (centres undefined)
20,767,CCOC(=O)c1sc2cccc(F)c2c1S(=O)(=O)N1CCN(c2ccccn2)CC1
21,637,O=C(c1cnccn1)N1CCCCC1c1nncn1Cc1ccccc1 (centres undefined)
22,921,O=[N+]([O-])c1ccc(-c2nc(NC3CCCCC3)c3ccccc3n2)cc1
23,605,CC1(C(=O)NCc2ccccc2)Cn2cnc(C(=O)N3CCOCC3)c2C(=O)N1C1CC1 (centres undefined)
24,1100,Cc1c(-c2noc(-c3cccc(F)c3)n2)nnn1-c1ccc(F)cc1
